Reference: paper PMC8205226, “HIV-1 Integrase Inhibitors with Modifications That Affect Their Potencies against Drug Resistant Integrase Mutants” (ACS Infectious Diseases, 2021)
Read-outs that look alike come from different tables or passages of the source.

Experiments:
HIV-1 IN mutant R231G = experiment: single-round infectivity assay, R231G IN mutant; type: cell-based
How it was run: (§1)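 Antiviral EC50 determined in single-round infection using HIV-1 vector pNLNgoMIVR-ΔENV.LUC (luciferase reporter) carrying the IN mutation, made by site-directed mutagenesis; WT vector run alongside. Values from n = 4 independent experiments, each in triplicate, reported with standard deviations.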

HIV-1 IN mutant G118R [1] = settings: single round infection; previously shown; cited from earlier work
HIV-1 IN mutant P142A = experiment: single-round infectivity assay, P142A IN mutant; type: cell-based
How it was run: (§2)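 Luciferase read-out from single-round infection with env-deleted HIV-1 vector (pNLNgoMIVR-ΔENV.LUC) bearing the IN mutant. EC50 from n = 4 independent experiments, triplicate each.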

HIV-1 IN mutant G118R [2] = experiment: single-round infectivity assay, G118R IN mutant; type: cell-based
How it was run: (§3)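 EC50 measured in single-round infection with HIV-1 pNLNgoMIVR-ΔENV.LUC-based vectors carrying the IN mutation, luciferase reporter. IN mutants generated by site-directed mutagenesis; n = 4 independent experiments, each in triplicate.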

HIV-1 IN mutant Y143R [3] = settings: single round infection; previously reported; cited from earlier work
HIV-1 IN mutant N117A = experiment: single-round infectivity assay, N117A IN mutant; type: cell-based
How it was run: as §3

HIV-1 IN mutant S119R = experiment: single-round infectivity assay, S119R IN mutant; type: cell-based
How it was run: as §3

HIV-1 IN mutant N155H [4] = experiment: single-round infectivity assay, N155H IN mutant; type: cell-based
How it was run: (§4)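 Single-round infection with luciferase-reporter HIV-1 vector (pNLNgoMIVR-ΔENV.LUC background) carrying WT or mutant integrase; EC50 values determined from infectivity in presence of compound, independent experiments run in triplicate.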

[5] = test system: HIV-1 IN double mutant G140S/Q148H; settings: single round infection; previously reported; cited from earlier work
[6] = test system: HIV-1 IN double mutant G140S/Q148H; experiment: single-round infectivity assay, G140S/Q148H IN double mutant; type: cell-based
How it was run: as §4

HIV-1 IN mutant Y143H = experiment: single-round infectivity assay, Y143H IN mutant; type: cell-based
How it was run: as §2

HIV-1 IN mutant N117H = experiment: single-round infectivity assay, N117H IN mutant; type: cell-based
How it was run: as §3

HIV-1 IN mutant P142S = experiment: single-round infectivity assay, P142S IN mutant; type: cell-based
How it was run: as §2

HIV-1 IN mutant N155H [7] = settings: single round infection; previously reported; cited from earlier work
HIV-1 IN mutant P142H = experiment: single-round infectivity assay, P142H IN mutant; type: cell-based
How it was run: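 EC50 was obtained in a single-round infection assay using the luciferase-reporter, Env-deleted HIV-1 vector pNLNgoMIVR-ΔENV.LUC carrying the P142H integrase mutation made by site-directed mutagenesis. Data are from four independent experiments, each in triplicate.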

HIV-1 IN mutant Y143R [8] = experiment: single-round infectivity assay, Y143R IN mutant; type: cell-based
How it was run: as §4

HIV-1 IN mutant Y143C = experiment: single-round infectivity assay, Y143C IN mutant; type: cell-based
How it was run: as §2

WT HIV-1 = settings: vector carrying WT HIV-1 IN, single round infection; previously reported; cited from earlier work
HIV-1 IN mutant S230R = experiment: single-round infectivity assay, S230R IN mutant; type: cell-based
How it was run: as §1

HIV-1 IN mutant R231K = experiment: single-round infectivity assay, R231K IN mutant; type: cell-based; settings: EC50 compound / EC50 DTG
How it was run: as §1

[9] = fold change in EC50, IN mutant versus WT HIV-1

Nc1c(C(=O)NCc2ccc(F)cc2F)c(=O)n(O)c2ncc(CCCCCCO)cc12 [4d]
ratio of the EC50s (our compound relative to DTG) against R231G (HIV-1 IN mutant R231G; EC50 compound / EC50 DTG): 0.9
EC50 (HIV-1 IN mutant R231G; Human immunodeficiency virus 1, read-out: EC50 values R231G): 1.3 ± 0.2 nM
FC R231G (HIV-1 IN mutant R231G; [9]): 0.6
EC50 (HIV-1 IN mutant G118R [1]): 6.4 ± 2.5 nM
ratio of the EC50s (our compound relative to DTG) against P142A (HIV-1 IN mutant P142A; EC50 compound / EC50 DTG): 0.8
EC50 (HIV-1 IN mutant P142A; Human immunodeficiency virus 1, read-out: EC50 values P142A): 2.1 ± 0.3 nM
FC P142A (HIV-1 IN mutant P142A; [9]): 0.9
ratio of the EC50s (our compound relative to DTG) against G118R (HIV-1 IN mutant G118R [2]; EC50 compound / EC50 DTG): 0.5
FC G118R (HIV-1 IN mutant G118R [2]; [9]): 2.8
EC50 (HIV-1 IN mutant Y143R [3]): 2.1 ± 1.4 nM
ratio of the EC50s (our compound relative to DTG) against N117A (HIV-1 IN mutant N117A; EC50 compound / EC50 DTG): 1.2
EC50 (HIV-1 IN mutant N117A; Human immunodeficiency virus 1, read-out: EC50 values N117A): 0.6 nM
FC N117A (HIV-1 IN mutant N117A; [9]): 0.3
ratio of the EC50s (our compound relative to DTG) against S119R (HIV-1 IN mutant S119R; EC50 compound / EC50 DTG): 0.9
EC50 (HIV-1 IN mutant S119R; Human immunodeficiency virus 1, read-out: EC50 values S119R): 2.1 ± 0.1 nM
FC S119R (HIV-1 IN mutant S119R; [9]): 0.9
ratio of the EC50s (our compound relative to DTG) against N155H (HIV-1 IN mutant N155H [4]; EC50 compound / EC50 DTG): 0.8
FC N155H (HIV-1 IN mutant N155H [4]; [9]): 1.2
EC50 [5]: 9.4 ± 3.6 nM
ratio of the EC50s (our compound relative to DTG) against G140S/Q148H ([6]; EC50 compound / EC50 DTG): 1.6
FC G140S/Q148H [6, 9]: 4.1
ratio of the EC50s (our compound relative to DTG) against Y143H (HIV-1 IN mutant Y143H; EC50 compound / EC50 DTG): 0.8
EC50 (HIV-1 IN mutant Y143H; Human immunodeficiency virus 1, read-out: EC50 values Y143H, single round infection, n = 4): 1.5 ± 0.1 nM
FC Y143H (HIV-1 IN mutant Y143H; [9]): 0.7
EC50 (HIV-1 IN mutant Y143H; read-out: EC50 values Y143H, single round infection, n = 4): < 3 nM
ratio of the EC50s (our compound relative to DTG) against N117H (HIV-1 IN mutant N117H; EC50 compound / EC50 DTG): 1.3
EC50 (HIV-1 IN mutant N117H; Human immunodeficiency virus 1, read-out: EC50 values N117H): 3 nM
FC N117H (HIV-1 IN mutant N117H; [9]): 1.3
ratio of the EC50s (our compound relative to DTG) against P142S (HIV-1 IN mutant P142S; EC50 compound / EC50 DTG): 0.5
EC50 (HIV-1 IN mutant P142S; Human immunodeficiency virus 1, read-out: EC50 values P142S): 1.2 ± 0.2 nM
FC P142S (HIV-1 IN mutant P142S; [9]): 0.5
EC50 (HIV-1 IN mutant N155H [7]): 2.7 ± 1 nM
ratio of the EC50s (our compound relative to DTG) against P142H (HIV-1 IN mutant P142H; EC50 compound / EC50 DTG): 0.5
EC50 (HIV-1 IN mutant P142H; Human immunodeficiency virus 1, read-out: EC50 values P142H): 1.5 ± 0.1 nM
FC P142H (HIV-1 IN mutant P142H; [9]): 0.7
ratio of the EC50s (our compound relative to DTG) against Y143R (HIV-1 IN mutant Y143R [8]; EC50 compound / EC50 DTG): 0.5
FC Y143R (HIV-1 IN mutant Y143R [8]; [9]): 0.9
ratio of the EC50s (our compound relative to DTG) against Y143C (HIV-1 IN mutant Y143C; EC50 compound / EC50 DTG): 0.9
FC Y143C (HIV-1 IN mutant Y143C; [9]): 0.5
EC50 (WT HIV-1): 2.3 ± 0.6 nM
ratio of the EC50s (our compound relative to DTG) against S230R (HIV-1 IN mutant S230R; EC50 compound / EC50 DTG): 0.8
EC50 (HIV-1 IN mutant S230R; Human immunodeficiency virus 1, read-out: EC50 values S230R): 3.8 ± 0.3 nM
FC S230R (HIV-1 IN mutant S230R; [9]): 1.7
ratio of the EC50s (our compound relative to DTG) against R231K (HIV-1 IN mutant R231K): 0.6
